Test [1] deals with Peroxisome proliferator-activated receptor gamma/Nuclear receptor coactivator 2 (Homo sapiens, UniProt P37231). In kind it is functional.
Test [2] deals with Peroxisome proliferator-activated receptor gamma/Nuclear receptor coactivator 1 (Homo sapiens, UniProt P37231). In kind it is functional.
Test [3] deals with Peroxisome proliferator-activated receptor gamma/Nuclear receptor coactivator 3 (Homo sapiens, UniProt P37231). In kind it is functional.
Another test deals with T1, Leucine aminopeptidase (Plasmodium falciparum 3D7, UniProt Q8IL11).
T1 sequence (Q8IL11 whole entry): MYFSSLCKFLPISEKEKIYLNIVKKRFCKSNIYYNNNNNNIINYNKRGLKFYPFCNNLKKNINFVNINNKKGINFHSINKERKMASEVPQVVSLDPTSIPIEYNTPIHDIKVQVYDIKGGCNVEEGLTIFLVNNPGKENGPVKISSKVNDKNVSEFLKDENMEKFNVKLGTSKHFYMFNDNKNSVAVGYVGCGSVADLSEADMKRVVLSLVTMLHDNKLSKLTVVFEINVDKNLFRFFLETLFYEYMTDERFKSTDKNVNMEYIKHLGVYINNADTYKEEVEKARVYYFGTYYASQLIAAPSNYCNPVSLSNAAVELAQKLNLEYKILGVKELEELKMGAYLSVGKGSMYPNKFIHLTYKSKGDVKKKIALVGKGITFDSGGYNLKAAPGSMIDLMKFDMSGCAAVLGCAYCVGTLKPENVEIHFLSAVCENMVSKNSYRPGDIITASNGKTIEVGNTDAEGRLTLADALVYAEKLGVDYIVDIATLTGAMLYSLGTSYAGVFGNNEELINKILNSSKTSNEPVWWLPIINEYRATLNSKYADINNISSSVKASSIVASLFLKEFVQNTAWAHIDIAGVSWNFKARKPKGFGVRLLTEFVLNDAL
Kind of test: P. falciparum M17LAP inhibitors, primary screen, biochemical, fluorogenic H-Leu-NHMec substrate, 1536-well (AID 1619). In kind it is functional.

A further test has as its target T2, Aminopeptidase N (Plasmodium falciparum FcB1/Columbia, UniProt O96935).
T2 sequence (O96935 whole entry): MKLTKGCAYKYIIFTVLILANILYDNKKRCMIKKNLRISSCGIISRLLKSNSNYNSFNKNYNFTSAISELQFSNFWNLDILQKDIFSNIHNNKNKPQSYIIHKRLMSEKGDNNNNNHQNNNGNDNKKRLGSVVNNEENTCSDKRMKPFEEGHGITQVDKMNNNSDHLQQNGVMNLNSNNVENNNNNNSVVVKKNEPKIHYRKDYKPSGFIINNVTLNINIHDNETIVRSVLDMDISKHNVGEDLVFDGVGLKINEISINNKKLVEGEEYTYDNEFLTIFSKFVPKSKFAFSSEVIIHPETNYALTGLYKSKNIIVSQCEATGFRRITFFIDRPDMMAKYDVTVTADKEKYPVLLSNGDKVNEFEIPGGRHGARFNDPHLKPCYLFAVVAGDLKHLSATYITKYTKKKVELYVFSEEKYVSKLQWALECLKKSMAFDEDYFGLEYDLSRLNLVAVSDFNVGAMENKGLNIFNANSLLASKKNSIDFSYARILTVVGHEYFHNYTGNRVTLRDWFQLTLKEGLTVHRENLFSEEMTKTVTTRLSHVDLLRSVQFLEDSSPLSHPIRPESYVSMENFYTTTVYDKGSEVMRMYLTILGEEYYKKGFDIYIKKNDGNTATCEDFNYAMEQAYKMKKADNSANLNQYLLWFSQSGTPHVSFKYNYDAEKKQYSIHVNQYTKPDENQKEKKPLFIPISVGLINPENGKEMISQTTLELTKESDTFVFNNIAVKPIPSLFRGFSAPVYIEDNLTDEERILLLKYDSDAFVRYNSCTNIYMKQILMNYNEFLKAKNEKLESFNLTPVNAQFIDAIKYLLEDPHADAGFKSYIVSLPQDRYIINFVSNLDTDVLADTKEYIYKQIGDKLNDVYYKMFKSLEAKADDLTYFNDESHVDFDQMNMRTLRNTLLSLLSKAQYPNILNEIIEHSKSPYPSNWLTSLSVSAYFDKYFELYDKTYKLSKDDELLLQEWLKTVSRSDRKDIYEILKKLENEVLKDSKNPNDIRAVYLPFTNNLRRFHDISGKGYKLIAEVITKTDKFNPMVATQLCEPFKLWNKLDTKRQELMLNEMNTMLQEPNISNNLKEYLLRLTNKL
Kind of test: malaria alanyl aminopeptidase activity blockers – biochemical, fluorogenic H-Leu-NHMec substrate, 1536-well (AID 1445). More on the design: species or system Plasmodium falciparum 3D7, 3D7.

Test [4] in a line: HEK-293T viability loss after treatment – luminescence, T-cell screen hits, cytotoxicity control for TCR NF-kB inhibitor project, dose response (AID 489026).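 Further: cells exposed to compound about 14 hours before the viability readout.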 Format: functional, cell-based.
In test [5] the target is T3, Short transient receptor potential channel 4 (Mus musculus, UniProt Q9QUQ5).
T3 sequence (Q9QUQ5 whole entry): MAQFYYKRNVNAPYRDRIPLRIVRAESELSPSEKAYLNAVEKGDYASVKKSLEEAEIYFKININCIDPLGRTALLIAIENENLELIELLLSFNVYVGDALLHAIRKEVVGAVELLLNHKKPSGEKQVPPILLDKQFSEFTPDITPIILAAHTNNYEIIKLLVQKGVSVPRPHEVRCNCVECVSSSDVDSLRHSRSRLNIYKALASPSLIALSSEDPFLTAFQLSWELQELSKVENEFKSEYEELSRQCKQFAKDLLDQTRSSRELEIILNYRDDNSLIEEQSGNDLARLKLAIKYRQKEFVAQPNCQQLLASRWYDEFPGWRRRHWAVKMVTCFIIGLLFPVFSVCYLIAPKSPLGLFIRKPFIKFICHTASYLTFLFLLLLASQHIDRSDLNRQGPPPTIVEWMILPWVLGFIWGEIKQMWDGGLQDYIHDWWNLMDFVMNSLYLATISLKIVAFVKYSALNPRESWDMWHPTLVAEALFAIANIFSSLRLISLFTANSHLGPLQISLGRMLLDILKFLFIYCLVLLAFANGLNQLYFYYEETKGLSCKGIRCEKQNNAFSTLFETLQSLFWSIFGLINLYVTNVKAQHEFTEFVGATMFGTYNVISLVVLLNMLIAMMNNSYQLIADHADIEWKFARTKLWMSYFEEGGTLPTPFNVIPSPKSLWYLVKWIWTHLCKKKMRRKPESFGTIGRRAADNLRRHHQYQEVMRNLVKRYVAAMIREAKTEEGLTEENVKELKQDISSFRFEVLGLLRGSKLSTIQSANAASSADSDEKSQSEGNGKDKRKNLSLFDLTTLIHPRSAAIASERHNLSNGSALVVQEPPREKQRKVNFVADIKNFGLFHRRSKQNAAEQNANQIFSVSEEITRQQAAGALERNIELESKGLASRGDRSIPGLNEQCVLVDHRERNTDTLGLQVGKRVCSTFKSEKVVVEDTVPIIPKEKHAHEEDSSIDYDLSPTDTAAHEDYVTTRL
Kind of test: calcium entry via TRPC4 opening agents – cell-based, HEK293 TRPC4/mu-opioid, Fluo-4 calcium, dose response (AID 434937). In kind it is functional.

A short description of test [6]: Luminescence Cell-Based Dose Confirmation HTS to Identify Activators of 5'UTR Stem-Loop Driven Alpha-Synuclein mRNA Translation in H4 Neuroglioblastoma Cells. [Related pubchem assays: 1829 (Project Summary), 1814 (Primary HTS)]. In kind it is functional.
Test [7] is described as follows: Luminescence Cell-Based Dose Response HTS to Identify Activators of Luciferase Translation or Activity in H4 […] Cells. [Related pubchem assays: 1829 (Project Summary), 1814 (Primary HTS)]. Format: functional.
The next test has as its system H4. As to the kind of experiment: Luminescence Cell-Based Dose Response HTS to Identify Activators of 5'UTR Stem-Loop Driven Prion Protein mRNA Translation in H4 Neuroglioblastoma Cells. [Related pubchem assays: 1829 (Project Summary), 1814 (Primary HTS)]. Format: functional. To be noted: Homo sapiens.
Test [8] can be described thus: THP-1 cell cytotoxicity, dose response, cytotoxicity control for non-replicating M. tuberculosis project (AID 489025). In kind it is functional.
Test [9] in a line: Vero E6 cell cytotoxicity, dose response, cytotoxicity control for non-replicating M. tuberculosis project, secondary assay (AID 492998). Format: functional, VeroE6. To be noted: Vero C1008.
A short description of the next test: cells. In kind it is functional.
Another test has as its target Beta-galactosidase (Escherichia coli, UniProt Q8VNN2). Kind of test: detection-enzyme interference by beta-gal modulators – biochemical, E. coli enzyme, set 3, artefact control for CCR6 antagonist project, dose response (AID 504712). Format: functional.
Test [10] concerns Streptococcus sp. 'group A'. Kind of test: Streptococcus pyogenes SK(-)GAS viability under kanamycin – luminescence, BacTiterGlo, confirmation, counter-screen for streptokinase expression inhibitor project, dose response (AID 1900). In kind it is functional, organism-based. (Counterscreens check selectivity or assay interference.)
The target of another test is T4, Streptokinase A (Streptococcus pyogenes serotype M1, UniProt P10520).
T4 sequence (P10520 whole entry): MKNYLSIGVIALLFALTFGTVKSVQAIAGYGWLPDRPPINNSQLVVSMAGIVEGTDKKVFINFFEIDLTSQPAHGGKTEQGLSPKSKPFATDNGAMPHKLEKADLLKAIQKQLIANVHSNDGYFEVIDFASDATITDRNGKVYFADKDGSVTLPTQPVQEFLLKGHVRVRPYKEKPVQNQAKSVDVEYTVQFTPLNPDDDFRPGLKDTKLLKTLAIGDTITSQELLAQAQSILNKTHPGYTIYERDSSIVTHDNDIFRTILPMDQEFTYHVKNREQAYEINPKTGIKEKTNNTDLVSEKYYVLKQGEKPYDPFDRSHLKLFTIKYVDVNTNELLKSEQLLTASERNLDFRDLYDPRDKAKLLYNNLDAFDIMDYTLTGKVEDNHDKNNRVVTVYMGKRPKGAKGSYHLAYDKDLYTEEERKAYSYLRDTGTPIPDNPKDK
Kind of test: viability-normalized secreted streptokinase activity reduction – plasminogen activation absorbance, OD405, dose response (AID 1914).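 Further: secreted streptokinase activity via plasminogen activation per viability signal from cell pellet.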 In kind it is functional, Streptococcus pyogenes M1 GAS.

The test system of a further test is Streptococcus. Kind of test: GAS UMAA2166 growth inhibition – luminescence, BacTiterGlo, counter-screen for streptokinase expression inhibitor project, dose response (AID 1915).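 Further: potency for reduction of bacterial viability or growth.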 Format: functional, organism-based.
In test [11] the target is Induced myeloid leukemia cell differentiation protein Mcl-1 (Homo sapiens, UniProt Q07820). Format: functional.

Here are results for 19 compounds from ChEMBL document CHEMBL1201862, “PubChem BioAssay data set” (2004).

Molecules are shown by their SMILES. The source made the active and inactive calls.

Peroxisome proliferator-activated receptor gamma/Nuclear receptor coactivator 3, sequence (P37231 whole entry): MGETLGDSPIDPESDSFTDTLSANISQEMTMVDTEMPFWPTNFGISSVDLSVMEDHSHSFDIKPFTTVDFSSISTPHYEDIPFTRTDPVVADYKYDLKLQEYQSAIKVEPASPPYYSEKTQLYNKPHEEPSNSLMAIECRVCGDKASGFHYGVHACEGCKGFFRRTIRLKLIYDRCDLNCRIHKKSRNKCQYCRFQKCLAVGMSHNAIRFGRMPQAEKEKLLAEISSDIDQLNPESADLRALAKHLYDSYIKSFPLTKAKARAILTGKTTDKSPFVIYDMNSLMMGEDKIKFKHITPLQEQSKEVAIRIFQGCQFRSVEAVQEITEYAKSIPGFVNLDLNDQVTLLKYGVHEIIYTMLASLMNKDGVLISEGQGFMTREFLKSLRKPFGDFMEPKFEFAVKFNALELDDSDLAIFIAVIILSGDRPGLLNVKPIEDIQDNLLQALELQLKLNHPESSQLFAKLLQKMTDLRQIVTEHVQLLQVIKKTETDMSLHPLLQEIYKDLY
Peroxisome proliferator-activated receptor gamma/Nuclear receptor coactivator 3, sequence (Q9Y6Q9 whole entry, further chain): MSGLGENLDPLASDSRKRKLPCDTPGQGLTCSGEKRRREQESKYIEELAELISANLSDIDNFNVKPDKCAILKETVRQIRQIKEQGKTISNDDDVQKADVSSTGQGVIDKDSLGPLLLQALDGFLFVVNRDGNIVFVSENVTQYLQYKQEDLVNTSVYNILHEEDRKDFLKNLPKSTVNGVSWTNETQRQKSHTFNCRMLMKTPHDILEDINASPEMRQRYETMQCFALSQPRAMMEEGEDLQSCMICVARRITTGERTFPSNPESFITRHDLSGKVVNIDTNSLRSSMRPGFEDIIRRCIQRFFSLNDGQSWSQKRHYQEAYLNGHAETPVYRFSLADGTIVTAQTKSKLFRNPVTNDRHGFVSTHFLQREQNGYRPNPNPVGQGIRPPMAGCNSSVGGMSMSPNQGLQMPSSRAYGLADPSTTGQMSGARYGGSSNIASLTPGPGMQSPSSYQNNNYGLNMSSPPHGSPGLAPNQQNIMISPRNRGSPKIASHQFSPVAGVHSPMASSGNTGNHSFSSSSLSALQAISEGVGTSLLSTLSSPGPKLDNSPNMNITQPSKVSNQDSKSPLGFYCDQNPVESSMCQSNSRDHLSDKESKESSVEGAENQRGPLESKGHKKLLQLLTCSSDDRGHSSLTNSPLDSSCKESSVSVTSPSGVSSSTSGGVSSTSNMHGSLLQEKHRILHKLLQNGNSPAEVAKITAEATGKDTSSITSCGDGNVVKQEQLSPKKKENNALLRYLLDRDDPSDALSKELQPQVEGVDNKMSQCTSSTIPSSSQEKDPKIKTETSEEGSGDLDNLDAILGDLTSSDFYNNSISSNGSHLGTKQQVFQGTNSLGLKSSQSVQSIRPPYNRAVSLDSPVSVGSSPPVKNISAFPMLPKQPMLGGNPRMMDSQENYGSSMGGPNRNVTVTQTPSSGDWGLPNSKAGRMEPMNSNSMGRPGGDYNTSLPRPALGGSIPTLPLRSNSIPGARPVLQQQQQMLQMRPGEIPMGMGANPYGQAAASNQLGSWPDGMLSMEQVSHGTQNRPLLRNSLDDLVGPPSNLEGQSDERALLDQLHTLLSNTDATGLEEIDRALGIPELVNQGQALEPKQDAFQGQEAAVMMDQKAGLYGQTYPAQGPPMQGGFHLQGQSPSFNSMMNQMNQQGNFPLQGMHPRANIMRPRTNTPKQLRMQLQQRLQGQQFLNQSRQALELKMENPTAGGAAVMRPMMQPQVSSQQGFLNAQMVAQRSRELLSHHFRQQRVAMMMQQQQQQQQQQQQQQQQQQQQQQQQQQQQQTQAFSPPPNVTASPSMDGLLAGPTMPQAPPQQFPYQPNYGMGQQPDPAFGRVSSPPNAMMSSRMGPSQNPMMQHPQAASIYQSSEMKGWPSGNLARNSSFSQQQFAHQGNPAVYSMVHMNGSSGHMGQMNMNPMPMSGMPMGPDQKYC
Peroxisome proliferator-activated receptor gamma/Nuclear receptor coactivator 1, sequence (P37231 whole entry): as the sequence (P37231 whole entry) above
Peroxisome proliferator-activated receptor gamma/Nuclear receptor coactivator 1, sequence (Q15788 whole entry, further chain): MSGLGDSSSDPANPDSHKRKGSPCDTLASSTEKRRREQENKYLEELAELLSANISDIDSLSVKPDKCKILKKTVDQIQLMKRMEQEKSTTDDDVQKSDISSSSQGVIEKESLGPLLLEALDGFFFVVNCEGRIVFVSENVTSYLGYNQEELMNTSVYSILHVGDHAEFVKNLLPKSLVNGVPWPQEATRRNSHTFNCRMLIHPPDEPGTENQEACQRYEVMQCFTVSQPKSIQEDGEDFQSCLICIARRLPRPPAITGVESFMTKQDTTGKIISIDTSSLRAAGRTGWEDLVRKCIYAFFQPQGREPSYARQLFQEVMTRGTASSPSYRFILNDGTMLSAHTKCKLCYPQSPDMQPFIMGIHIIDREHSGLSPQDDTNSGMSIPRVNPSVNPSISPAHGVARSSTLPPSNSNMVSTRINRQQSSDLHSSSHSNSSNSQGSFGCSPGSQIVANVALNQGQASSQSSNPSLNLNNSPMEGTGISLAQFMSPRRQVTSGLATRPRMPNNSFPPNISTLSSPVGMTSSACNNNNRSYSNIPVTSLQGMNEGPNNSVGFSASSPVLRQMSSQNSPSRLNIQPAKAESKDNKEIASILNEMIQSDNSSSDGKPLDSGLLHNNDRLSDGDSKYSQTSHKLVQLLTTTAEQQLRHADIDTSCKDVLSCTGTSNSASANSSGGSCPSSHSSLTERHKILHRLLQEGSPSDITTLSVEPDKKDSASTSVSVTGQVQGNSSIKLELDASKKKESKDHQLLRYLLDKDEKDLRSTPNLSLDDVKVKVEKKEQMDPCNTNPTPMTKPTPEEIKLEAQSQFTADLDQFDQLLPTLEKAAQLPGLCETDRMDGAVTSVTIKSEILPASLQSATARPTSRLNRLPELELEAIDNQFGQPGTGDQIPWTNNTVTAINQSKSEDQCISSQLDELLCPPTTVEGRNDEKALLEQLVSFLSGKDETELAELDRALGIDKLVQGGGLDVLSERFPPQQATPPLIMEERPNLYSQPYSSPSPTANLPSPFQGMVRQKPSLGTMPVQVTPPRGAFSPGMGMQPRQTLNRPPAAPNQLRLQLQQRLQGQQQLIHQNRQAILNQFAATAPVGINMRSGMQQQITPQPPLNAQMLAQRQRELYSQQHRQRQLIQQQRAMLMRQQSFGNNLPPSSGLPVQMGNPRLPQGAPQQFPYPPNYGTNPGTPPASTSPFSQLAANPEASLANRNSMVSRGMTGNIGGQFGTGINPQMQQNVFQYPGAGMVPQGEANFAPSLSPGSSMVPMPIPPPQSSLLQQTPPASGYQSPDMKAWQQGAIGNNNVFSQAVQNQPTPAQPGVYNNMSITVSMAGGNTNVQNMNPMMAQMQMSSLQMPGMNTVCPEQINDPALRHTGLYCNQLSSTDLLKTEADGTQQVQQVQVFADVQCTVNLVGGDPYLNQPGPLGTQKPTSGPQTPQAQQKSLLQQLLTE
Beta-galactosidase, sequence (Q8VNN2 whole entry): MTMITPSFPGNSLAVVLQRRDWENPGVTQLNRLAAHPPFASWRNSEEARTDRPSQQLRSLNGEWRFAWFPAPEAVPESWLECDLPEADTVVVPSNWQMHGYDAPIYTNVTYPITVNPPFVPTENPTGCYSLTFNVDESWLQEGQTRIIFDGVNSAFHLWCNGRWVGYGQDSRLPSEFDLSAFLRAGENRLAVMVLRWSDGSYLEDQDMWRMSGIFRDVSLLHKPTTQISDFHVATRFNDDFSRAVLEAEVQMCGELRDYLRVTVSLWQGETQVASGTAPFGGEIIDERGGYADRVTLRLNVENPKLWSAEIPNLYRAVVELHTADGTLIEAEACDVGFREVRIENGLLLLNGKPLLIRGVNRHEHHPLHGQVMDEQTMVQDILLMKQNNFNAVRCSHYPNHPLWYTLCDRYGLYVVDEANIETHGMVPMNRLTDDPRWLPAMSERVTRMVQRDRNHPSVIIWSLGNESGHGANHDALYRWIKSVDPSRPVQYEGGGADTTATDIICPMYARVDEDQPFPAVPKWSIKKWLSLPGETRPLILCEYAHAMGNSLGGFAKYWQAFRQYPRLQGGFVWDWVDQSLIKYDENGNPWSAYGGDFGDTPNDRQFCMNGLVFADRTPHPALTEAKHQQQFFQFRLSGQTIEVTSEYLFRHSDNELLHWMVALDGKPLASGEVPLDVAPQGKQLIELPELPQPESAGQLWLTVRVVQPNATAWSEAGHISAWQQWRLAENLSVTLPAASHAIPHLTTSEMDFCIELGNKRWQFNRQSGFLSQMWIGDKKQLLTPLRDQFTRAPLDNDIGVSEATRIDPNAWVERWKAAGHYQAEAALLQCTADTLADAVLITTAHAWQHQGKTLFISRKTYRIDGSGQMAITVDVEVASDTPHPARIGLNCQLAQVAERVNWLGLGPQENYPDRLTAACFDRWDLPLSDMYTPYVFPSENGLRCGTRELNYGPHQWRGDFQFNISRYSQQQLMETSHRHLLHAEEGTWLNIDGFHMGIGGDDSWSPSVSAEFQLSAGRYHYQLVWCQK

By EC50 is commonly meant the concentration at which the effect is half-maximal. For `CCOC(=O)C1CCCN(S(=O)(=O)c2cc(Br)cc3c2N(C(=O)C2CC2)CC3)C1` (stereo not given), the EC50 in [1], in [2] and in test [3] was > 79.4 µM (not active) each time.

As usually defined, the IC50 is the concentration that gives 50% inhibition. Regarding `CCOC(=O)c1c(NC(=O)CSc2nnc(C)c(=O)[nH]2)sc2c1CCCC2`, the IC50 is 9.34 µM (active) on Leucine aminopeptidase and 62.1 µM (active) at Aminopeptidase N.

As for `COc1ccc([C@H]2CC(=O)C=C(c3ccc(OC)cc3OC)C2)cc1`, in [4], the IC50 was > 80 µM (inactive).

For the compound `CCOC(=O)c1ccccc1NC(=O)c1cn(-c2ccc(C)c(C)c2)c(=O)c2ccccc12`, the EC50 in test [1], in test [2] and in [3] was > 79.4 µM (not active) in each case.

As for `CCCCCCCOc1ccc(OC(=O)c2ccncc2)cc1`, the IC50 in [4] is > 80 µM (inactive).

As for `Cc1cc(C)c(C(=O)CSc2nnc(-c3ccccc3Br)o2)cc1C`, the EC50 in test [1] is listed as 32.6 µM (not active); in test [2], 51.9 µM (not active); in [3] it was 69.8 µM (not active).

In the case of `CC(=O)N1CCc2cc(Br)cc(S(=O)(=O)NCCCN(C)Cc3ccccc3)c21`, in test [5], the EC50 was 149 nM (active).

As for `O=C(c1cc(COc2ccc(F)cc2Cl)on1)N1CCCC(OCc2cccnc2)C1` (stereo not given), the EC50 in test [1], in [2] and in [3] was > 79.4 µM (not active) throughout.

As to `O=C(Nc1nccs1)c1ccc(NC(=O)C2CC=CCC2C(=O)O)cc1` (stereo not given), the IC50 on Leucine aminopeptidase was 23.2 µM (active).

For orientation: CC50 means the concentration giving 50% cytotoxicity. For `CCOC(=O)c1cnc(Nc2nc3ccccc3o2)nc1CSC(=S)N1CCCCC1`, the EC50 in test [6] is > 60 µM (not active); in test [7], 7.71 µM (active); with H4 it was > 120 µM (not active). In addition, the figures for the CC50 in test [8] and in test [9] were > 40 µM (active) and 9.21 µM (active), respectively. Further, the IC50 in “cells” is 2.4 µM (active).

In the case of `COc1ccc(NC(=O)CSc2nnc[nH]2)c([N+](=O)[O-])c1`, the IC50 at Leucine aminopeptidase was 17 µM (active).

Take `CC1Cc2ccccc2N1C(=S)NC(=O)c1cccc(Br)c1` (stereo not given): on Beta-galactosidase, the IC50 was > 66.6 µM (inactive).

Consider `COC(=O)c1c(NC(=O)C2C3C=CC(CC3)C2C(=O)O)sc(C)c1C` (stereo not given), for which, on Leucine aminopeptidase, the IC50 was 19 µM (active).

Regarding `COc1ccc(-c2cc(C(F)F)n3ncc(C(=O)N4CCCc5ccccc54)c3n2)cc1`, the EC50 in test [1], in [2] and in test [3] was > 79.4 µM (not active) each time.

In the case of `Clc1cccc(OCCN2CCN(CCOc3cccc(Cl)c3)CC2)c1`, the CC50 in test [8] was 31.3 µM (active); in test [9], > 20 µM (active). Moreover, in “cells”, the IC50 was 23.9 µM (active).

As for `CCOc1ccc(NC(=O)CSc2nc(C)cc(C)n2)cc1`, the IC50 at Leucine aminopeptidase is 4.3 µM (active).

As for `CCOC(=O)C1(Cc2cccc(F)c2)CCN(Cc2cnc(C)s2)CC1`, the EC50 in [5] was 944 nM (active).

Regarding `C/C(=N\NC(=S)NCCc1ccccc1)c1ccc(Cl)cc1Cl`, the EC50 is 4.66 µM (active) in test [10], > 150 µM (inconclusive) at Streptokinase A and 21.2 µM (active) with Streptococcus. In addition, the IC50 at Beta-galactosidase is > 66.6 µM (inactive).

`O=C(CNC(=O)C(c1ccccc1)c1ccccc1)N/N=C/c1cccnc1`: in [11], the IC50 was 5.72 µM (not active).
